Test results taken from patent publication US9809560B2, “Ligands and methods for labeling biomolecules in vivo” (Albert Einstein College of Medicine, Inc., priority 2010, dated 2017).
Counter-ions that a name gives are not always drawn.

Legend:
[1] = system: PD1-Fc; test: Labeling of PD1-Fc via CuAAC and Cu-free click chemistry, detection by Western blot; conditions: 1 h; for Western blot labeling signal: CuAAC with biotin-alkyne 100 μM or BARAC-biotin 100 μM
Method: FIG. 13. Comparison of the efficiency of the CuAAC and BARAC-mediated copper-free click chemistry in labeling recombinant proteins and crude cell lysates. Western blot analysis of PD1-Fc isolated from HEK cells treated with Ac4ManNAz (top panel). Total protein loading was confirmed by Coomassie staining (bottom panel). Reaction conditions for CuAAC: biotin-alkyne (100 μM) in the presence of sodium ascorbate (2.5 mM), CuSO4 (250 μM) premixed with various tristriazolylamino ligands (500 μM); copper-free click reaction: BARAC-biotin (100 μM). Reactions were allowed to proceed for 1 h at room temperature, and analyzed by Western blot using an HRP-conjugated anti-biotin antibody. Structural formulae of tris(triazolylmethyl)amine-based ligands and BARAC-biotin. BTTAA=2-[4-({bis[(1-tert-butyl-1H-1,2,3-triazol-4-yl)methyl]amino}methyl)-1H-1,2,3-triazol-1-yl]acetic acid, BTTES=2-[4-({bis[(1-tert-butyl-1H-1,2,3-triazol-4-yl)methyl]amino}methyl)-1H-1,2,3-triazol-1-yl]ethyl hydrogen sulfate, TBTA=tris[(1-benzyl-1H-1,2,3-triazol-4-yl)methyl]amine, THPTA=tris[(1-hydroxypropyl-1H-1,2,3-triazol-4-yl)methyl]amine, BARAC=biarylazacyclooctynone.
To evaluate the activity of the new ligand-Cu(I) complex and compare the click reactions in the context of biomolecular labeling experiments, the first system used was a recombinant glycoprotein—Programmed Death 1-Immunoglobulin G Fc fusion (PD1-Fc). When expressed in mammalian cells, the Fc region of the recombinant protein is glycosylated and terminated with sialic acids. HEK-293 cells stably expressing PD1-Fc fusion protein were cultured in medium containing 50 μM sialic acid metabolic precursor—peracetylated N-azidoacetylmannosamine (Ac4ManNAz) for 4 days. The target protein was then isolated using protein G (a genetically engineered protein that contains Fc binding domains of protein G) agarose. To probe for the presence of the sialic acid-associated azide, the protein was reacted with biotin-alkyne via the CuAAC or BARAC-biotin via the copper-free click chemistry. For the CuAAC, 100 μM of biotin-alkyne was used as the coupling partner and the ratio of biotin-alkyne, ligand, CuSO4 and sodium ascorbate was held at 1:5:2.5:25, a labeling condition optimized in the lab. The copper-free click chemistry was performed with 100 μM of BARAC-biotin. The reactions were allowed to proceed for one hour and the labeled protein was analyzed by SDS-PAGE and Western blot. As quantified by ImageJ, reactions mediated by BTTES-Cu(I) and BTTAA-Cu(I) provided 2.6- and 2.1-fold stronger signal than the signal afforded by THPTA-Cu(I) for the fusion protein isolated from Ac4ManNAz-treated culture. […]

[2] = Fluorogenic kinetic assay of CuAAC of 3-azido-7-hydroxy-coumarin and propargyl alcohol; conditions: TBTA-Cu(I)-catalyzed reaction, same fluorogenic assay
Method: FIG. 1A-1C. Copper(I)-catalyzed azide-alkyne cycloaddition (CuAAC) is accelerated by Cu(I)-stabilizing ligands. (A) CuAAC of azides and terminal alkynes to form 1,4-disubstituted 1,2,3-triazoles. (B) Structures of CuAAC-accelerating ligands. (C) Conversion-time profiles of CuAAC in the presence/absence of accelerating ligands. Reaction conditions: propargyl alcohol (50 μM), 3-azido-7-hydroxy-coumarin (100 μM), CuSO4 (75 μM), 0.1 M potassium phosphate buffer (pH 7.0)/DMSO 95:5, sodium ascorbate ([…]), rt. Error bars represent the standard deviation of three replicate experiments.
Protocol for Kinetic Measurement of CuAAC of 3-azido-7-hydroxy-coumarin and Propargyl Alcohol […]
Procedure for 200 μL reactions: In a 96-well fluorescence plate, add the reagents in the following order: (1) 40 μL of 500 mM phosphate buffer pH 7.0; (2) 1.0 μL 10 mM propargyl alcohol; (3) 10 μL of DMSO; (4) 6 μL of premixed CuSO4 and ligand ([Cu]=2.5 mM); (5) 1.0 μL 20 mM coumarin-N3; (6) 20 μL of 25 mM sodium ascorbate; (7) Read fluorescence (λex=404 nm, λem=477 nm, RFU) on the Synergy plate reader.

[3] = cited from earlier work
[4] = system: zebrafish embryos; conditions: 1 mM CuSO4, 1.5 mM sodium ascorbate, 0.1 mM TBTA ligand; cited from earlier work
[5] = system: Jurkat cells; test: Live cell labeling of Ac4ManNAl-treated cells, BTTPS-Cu(I) vs BTTP-Cu(I), Alexa Fluor 488-streptavidin and 7-AAD flow cytometry; type: cell-based, human; conditions: for mean fluorescence intensity: 15 min
Method: FIG. 12A-12D. Comparison of the efficiency of the BTTPS-Cu(I) and BTTP-Cu(I)-mediated azide-alkyne cycloaddition in labeling sialylated glycoconjugates in live cells. Jurkat cells were cultured in the presence or absence of Ac4ManNAl for 3 days. Cells were then reacted with biotin azide (50 μM) in the presence of sodium ascorbate (2.5 mM), and CuSO4 premixed with ligands BTTPS or BTTP ([ligand]:[CuSO4]=6:1). Reactions were quenched with BCS, stained with Alexa Fluor 488-streptavidin, 7-AAD, and analyzed by flow cytometry. (A) Mean fluorescence intensity (MFI) of cells treated with the BTTPS-Cu(I) or BTTP-Cu(I) catalyst ([CuSO4]=75 μM) in the course of 5-15 min reactions. (B) Percentage of viable cells without cell-membrane damage post the click reactions with the BTTPS-Cu(I) or BTTP-Cu(I) catalyst ([CuSO4]=75 μM) in the course of 5-15 min reactions. (C) MFI of cells treated with the BTTPS-Cu(I) catalyst ([CuSO4]=20-75 μM) in a one-minute reaction. (D) Percentage of viable cells without cell-membrane damage post the click reactions with the BTTPS-Cu(I) catalyst ([Cu]=20-75 μM) in a one-minute reaction.
In the ligand design, sulfation of BTTP is used to generate a negatively charged ligand, BTTPS (3-(4-((bis((1-tert-butyl-1H-1,2,3-triazol-4-yl)methyl)amino)methyl)-1H-1,2,3-triazol-1-yl)propyl hydrogen sulfate), (FIG. 14) to minimize the cellular internalization of the coordinated copper. To evaluate if sulfation confers the ligand the desired property, BTTPS-Cu(I) and BTTP-Cu(I) were compared in live cell labeling experiments. Jurkat cells were metabolically labeled with Ac4ManNAl. The treated cells were reacted with biotin-azide (50 μM) in the presence of BTTPS-Cu(I) or BTTP-Cu(I) for 5-15 min at room temperature (catalyst formulation: [ligand]:[CuSO4]=6:1, [CuSO4]=75 μM). After the reaction was quenched with BCS, the biotinylated cells were incubated with Alexa Fluor 488-streptavidin. The cells were then stained with 7-aminoactinomycin D (7-AAD), a fluorescent molecule with strong affinity for double-stranded DNA, and analyzed by flow cytometry. […] Therefore, healthy and damaged cells can be easily distinguished. […] Greater than 60% cells were still undamaged after treatment with BTTPS-Cu(I) (7-AAD negative), whereas only 26% cells treated with BTTP-Cu(I) reminded normal (FIG. 12b). Furthermore, the labeling temperature also plays a significant role in modulating the Cu-associated toxicity. When both Jurkat cells and the labeling reagents were pre-cooled to 4° C. before triggering the CuAAC, greater than 85% cells remained viable after a 15 min BTTPS-Cu(I)-mediated reaction with high labeling efficiency achieved (mean fluorescence intensity 2200, for reactions performed at 4° C.-room temperature vs 3679, for reactions performed at room temperature).

CC(C)(C)n1cc(CN(Cc2cn(CC(=O)O)nn2)Cc2cn(C(C)(C)C)nn2)nn1 [BTTAA, 2-(4-((bis((1-tert-butyl-1H-1,2,3-triazol-4-yl)methyl)amino)methyl)-1H-1,2,3-triazol-1-yl)acetic acid]
signal relative to THPTA-Cu(I) (Western blot, ImageJ) ([1]; biotin-alkyne 100 μM, ligand 500 μM, CuSO4 250 μM, sodium ascorbate 2.5 mM): 2.1 fold

tris[(1-hydroxypropyl-1H-1,2,3-triazol-4-yl)methyl]amine [THPTA]
Western blot labeling signal [1]: significantly weaker labeling

c1ccc(Cn2cc(CN(Cc3cn(Cc4ccccc4)nn3)Cc3cn(Cc4ccccc4)nn3)nn2)cc1 [TBTA, tris[(1-benzyl-1H-1,2,3-triazol-4-yl)methyl]amine]
Western blot labeling signal [1]: no detectable signal
cycloaddition product yield at leveling off [2]: < 20%
water solubility [3]: very poor water solubility
time by which all embryos were dead [4]: ≤ 15 min

CC(C)(C)n1cc(CN(Cc2cn(CCCOS(=O)(=O)O)nn2)Cc2cn(C(C)(C)C)nn2)nn1 [BTTPS, 3-(4-((bis((1-tert-butyl-1H-1,2,3-triazol-4-yl)methyl)amino)methyl)-1H-1,2,3-triazol-1-yl)propyl hydrogen sulfate]
mean fluorescence intensity ([5]; reactions performed at 4° C.-room temperature): 2200
mean fluorescence intensity ([5]; reactions performed at room temperature): 3679
cells undamaged (7-AAD negative) ([5]; 15 min reaction at room temperature, [ligand]:[CuSO4]=6:1, [CuSO4]=75 μM): Greater than 60%
cells remaining viable ([5]; cells and reagents pre-cooled to 4° C., 15 min reaction): greater than 85%

biarylazacyclooctynone [BARAC]
Western blot labeling signal [1]: no detectable signal
